The values that follow come from patent US20100203576A1, “PROCESS FOR DETERMINATION OF MICROORGANISMS' RESISTANCE TO ANTIBIOTICS” (INTELLIGENCE ARTIFICIELLE APPLICATIONS, priority 2009, published 2010).

This test has as its system Escherichia coli. In words: Antibiogram resistance of similar Escherichia coli strains recorded in the data base. The format is cell-based. Further details: key to Resistance, MO list in data base 1 / Resistance, MO list in data base 2 / Resistance, MO list in data base 3 / Resistance, MO list in data base 4: R: significant resistance; I: average resistance; S: without resistance. As to conditions: for Resistance of Escherichia coli species 1 to 4 (in words): Escherichia coli species 1 to 4, similar between 98.5 to 83.6% to the urine specimen strain; for Resistance, MO list in data base 1: Escherichia coli strain 1, similarity 98.5%; for Resistance, MO list in data base 2: Escherichia coli strain 2, similarity 97.8%; for Resistance, MO list in data base 3: Escherichia coli strain 3, similarity 84.2%; for Resistance, MO list in data base 4: Escherichia coli strain 4, similarity 83.6%.

Turning to `CCN1CCN(C(=O)N[C@@H](C(=O)N[C@@H]2C(=O)N3[C@@H]2SC(C)(C)[C@@H]3C(=O)O)c2ccccc2)C(=O)C1=O` [PIPERACILLIN, piperacillin], the “Resistance of Escherichia coli species 1 to 4 (in words)” value (“Resistance … (in words)” below) is reported as “resistant”; the “Resistance, MO list in data base 1” value is reported as “R”; the “Resistance, MO list in data base 2” value is reported as “R”; the “Resistance, MO list in data base 3” value was “R”. The “Resistance, MO list in data base 4” value is “R”.

As for `CC(=O)OCC1=C(C(=O)O)N2C(=O)[C@@H](NC(=O)Cc3cccs3)[C@H]2SC1` [CEPHALOTIN, cefalotin], the “Resistance … (in words)” value was “resistant”; the “Resistance, MO list in data base 1” value was “R”; the “Resistance, MO list in data base 2” value is on record as “R”; the “Resistance, MO list in data base 3” value is “R”. The “Resistance, MO list in data base 4” value is on record as “R”.

As to `O=C(O)c1cn(C2CC2)c2cc(N3CCNCC3)c(F)cc2c1=O` [CIPROFLOXACIN], the “Resistance, MO list in data base 1” value is listed as “R”; the “Resistance, MO list in data base 2” value was “R”; the “Resistance, MO list in data base 4” value is “I”.

As to gentamicin, the “Resistance … (in words)” value is reported as “not resistant”; the “Resistance, MO list in data base 1” value is on record as “S”; the “Resistance, MO list in data base 2” value is “S”; the “Resistance, MO list in data base 3” value was “S”. The “Resistance, MO list in data base 4” value is reported as “S”.

For `CC1(C)S[C@@H]2[C@H](NC(=O)[C@H](N)c3ccc(O)cc3)C(=O)N2[C@H]1C(=O)O` [AMOXICILLIN, amoxicillin], the “Resistance … (in words)” value is recorded as “resistant”; the “Resistance, MO list in data base 1” value is on record as “R”; the “Resistance, MO list in data base 2” value is listed as “R”; the “Resistance, MO list in data base 3” value is reported as “R”. Besides, the “Resistance, MO list in data base 4” value was “R”.

For the molecule `CO/N=C(\C(=O)N[C@@H]1C(=O)N2C(C(=O)O)=C(CSc3nc(=O)c(O)nn3C)CS[C@H]12)c1csc(N)n1` [CETRIAXONE, cetriaxone], the “Resistance … (in words)” value is “not resistant”; the “Resistance, MO list in data base 1” value was “S”; the “Resistance, MO list in data base 2” value is recorded as “S”; the “Resistance, MO list in data base 3” value is “S”. In addition, the “Resistance, MO list in data base 4” value is on record as “S”.
